Results taken from patent US20240415789A1, “CYCLOBENZAPRINE FOR TREATMENT OR PREVENTION OF SEXUAL DYSFUNCTION ASSOCIATED WITH MENTAL HEALTH CONDITIONS IN FEMALE PATIENTS” (Tonix Pharmaceuticals Holding Corp., priority 2021, published 2024).
Counter-ions that a name gives are not always drawn. Like-named read-outs stand apart in the source and are kept apart here.

Key:
[1] = tested on: female sexual functioning in females with military-related PTSD; details: military Phase 3, females 5.6 mg (N=8) vs placebo (N=16), 12 weeks
Protocol: (§1) Methods: In this 12-week, multicenter, adaptive design, randomized controlled fixed-dose trial, 5.6 mg cyclobenzaprine HCl (2×2.8 mg sublingual tablets, comprising a 75%±2% cyclobenzaprine HCl and 25%±2% mannitol eutectic and a potassium phosphate dibasic anhydrous basifying agent) taken daily at bedtime was compared to placebo for the treatment of PTSD at 45 U.S. sites. […] A pre-planned interim analysis was conducted when about half the originally planned sample of 550 participants had outcome data.
(§2) The modified intention-to-treat (mITT) population, which included all randomized subjects with at least one post-baseline CAPS-5, included 125 participants treated with 5.6 mg dose per day the above cyclobenzaprine HCl sublingual formulation and 127 participants on placebo were studied.
Sexual functioning was measured by Changes in Sexual Functioning Questionnaire short-form (CSFQ-14) which is a validated 14-item measure (Keller, McGarvey, Clayton, 2006). Parallel gender-specific versions are administered to males (CSFQ-14-M) and females (CSFQ-14-F), and each sex was analyzed separately. In addition to a total sexual functioning score, there are five sub-scales: desire/frequency, desire/interest, arousal/excitement, orgasm/complete, and pleasure. The scales range from (never) to (every day) and higher scores reflect greater levels of sexual functioning.
(§3) In the Phase 3 study in predominantly civilian PTSD, the inclusion criteria were broadened to include civilian participants with current PTSD, as determined by the CAPS-5. Accordingly, this study included 94% civilian trauma with a minimum baseline severity score of ≥33 on the CAPS-5. […] Thus, analyses were conducted on the interim analysis sample of 252 participants in the military Phase 3 study (89% male [n=225 M; n=27 F]; 100% military PTSD) and […] subjects in the civilian Phase 3 study (79% female [n=129 F; n=34 M]; 94% civilian PTSD).
(§4) The CSFQ-14 is a validated 14-item measure (Keller, McGarvey, Clayton, 2006) that has male and female versions which were analyzed separately. In addition to a total sexual functioning score, there are five sub-scales: desire/frequency, desire/interest, arousal/excitement, orgasm/complete, and pleasure. The items range on 5-point Likert scale from (never) to (every day). Higher scores reflect greater levels of sexual functioning.

[2] = Protocol: as §1, §2
military-related PTSD = details: female subgroup (10 active, 17 placebo), 5.6 mg per day sublingual, after 12 weeks of treatment
Protocol: as §1, §2

[3] = tested on: female sexual functioning in females with predominantly civilian PTSD; details: civilian Phase 3, female completers 5.6 mg (N=58) vs placebo (N=55), 12 weeks
Protocol: (§5) Three randomized, placebo-controlled and double-blind clinical trials of the above described 5.6 mg cyclobenzaprine HCl sublingual formulation (2×2.8 mg tablets) were performed, a Phase 2 study and a Phase 3 study in military-related PTSD, and a Phase 3 study in predominantly civilian PTSD. […] The present retrospective analysis examined the activity of the cyclobenzaprine HCl sublingual formulation on the Changes in Sexual Functioning Questionnaire short form (CSFQ-14) in the two Phase 3 studies.
as §3, §4

[4] = both Phase 3 studies
Protocol: as §5, §3

[5] = Phase 2 study in military-related PTSD, drug and placebo groups
Protocol: as §5

PTSD = details: all three trials (Phase 2, two Phase 3), 5.6 mg dose
Protocol: as §5

CN(C)CCC=C1c2ccccc2C=Cc2ccccc21 [cyclobenzaprine HCl]
CSFQ-14-F arousal/excitement subscale, Hedges' g vs placebo [1]: 0.55 | CSFQ-14-F desire/frequency subscale, Hedges' g vs placebo [1]: 0.46 | CSFQ-14-F desire/interest subscale, Hedges' g vs placebo [1]: 0.63 | CSFQ-14-F orgasm/completion scale, effect vs placebo [1]: No effect | CSFQ-14-F pleasure subscale, Hedges' g vs placebo [1]: 0.54 | CSFQ-14-F total score, Hedges' g effect size vs placebo [1]: 0.49 | severity of oral hypoaesthesia ([2]; military Phase 3): never rated as severe | participants with at least one AE leading to study discontinuation ([2]; military Phase 3, 5.6 mg dose (placebo: two)): 8 participants | most frequent adverse event ([2]; military Phase 3, 5.6 mg sublingual daily at bedtime): oral hypoaesthesia | duration of oral hypoaesthesia post administration ([2]; military Phase 3, generally transient): < 60 min | most common systemic adverse event ([2]; military Phase 3, also never rated as severe): somnolence | observed mean improvement in CAPS-5 over placebo (military-related PTSD): −9.1 units | CSFQ-14-F arousal/excitement subscale, Hedges' g vs placebo [3]: 0.33 | CSFQ-14-F desire/frequency subscale, Hedges' g vs placebo [3]: 0.21 | CSFQ-14-F desire/interest subscale, Hedges' g vs placebo [3]: 0.23 | CSFQ-14-F orgasm/completion subscale, Hedges' g vs placebo [3]: 0.29 | CSFQ-14-F pleasure subscale, Hedges' g vs placebo [3]: 0.19 | CSFQ-14-F total score, Hedges' g effect size vs placebo ([3]; p=0.07): 0.37 | severity of oral hypoaesthesia [4]: never rated as severe | most frequent adverse event ([4]; 5.6 mg sublingual): oral hypoaesthesia | duration of oral hypoaesthesia post administration ([4]; generally transient): < 60 min | most common systemic adverse event ([4]; also never rated as severe): somnolence | rates of adverse events related to sexual function [5]: very low rates | activity on clinician- and patient-rated global PTSD symptoms (CGI and PGIC) (PTSD): encouraging activity
